Measured values taken from ChEMBL document CHEMBL1146050, “Depeptidization efforts on P3-P2' alpha-ketoamide inhibitors of HCV NS3-4A serine protease: effect on HCV replicon activity” (Bioorg Med Chem Lett, 2006).
Numbered stars: 1 amine (or outer) side, 2 acyl side, 3 side chain; on linkers, the order of the positions; unused ones are H or OH. Square brackets hold non-standard residues; d marks the D form. Peptide text beside a SMILES is read from it. * marks the point of attachment. NMeAla(cPr) = CN[C@@H](CC1CC1)C(=O)O; Isobutyloxycarbonyl = CC(C)COC(=O)*; X1 = O=C(C(=O)[*:2])C(CC1CC1)N[*:1]; Ala(cPr) = N[C@@H](CC1CC1)C(=O)O; Chg = N[C@H](C(=O)O)C1CCCCC1; Phg = N[C@H](C(=O)O)c1ccccc1

Columns and labels:
[1] = target: NS3 (Hepatitis C virus, UniProt A3EZJ3); assay: Inhibitory activity against HCV NS3 protease; parameters: species or system Hepacivirus hominis; conditions: read-out: Ki app
[2] = tested on: Hepatitis C virus; assay: Inhibitory activity against HCV replicon; assay type: functional, Hepacivirus hominis

Sequence of NS3 (A3EZJ3 whole entry): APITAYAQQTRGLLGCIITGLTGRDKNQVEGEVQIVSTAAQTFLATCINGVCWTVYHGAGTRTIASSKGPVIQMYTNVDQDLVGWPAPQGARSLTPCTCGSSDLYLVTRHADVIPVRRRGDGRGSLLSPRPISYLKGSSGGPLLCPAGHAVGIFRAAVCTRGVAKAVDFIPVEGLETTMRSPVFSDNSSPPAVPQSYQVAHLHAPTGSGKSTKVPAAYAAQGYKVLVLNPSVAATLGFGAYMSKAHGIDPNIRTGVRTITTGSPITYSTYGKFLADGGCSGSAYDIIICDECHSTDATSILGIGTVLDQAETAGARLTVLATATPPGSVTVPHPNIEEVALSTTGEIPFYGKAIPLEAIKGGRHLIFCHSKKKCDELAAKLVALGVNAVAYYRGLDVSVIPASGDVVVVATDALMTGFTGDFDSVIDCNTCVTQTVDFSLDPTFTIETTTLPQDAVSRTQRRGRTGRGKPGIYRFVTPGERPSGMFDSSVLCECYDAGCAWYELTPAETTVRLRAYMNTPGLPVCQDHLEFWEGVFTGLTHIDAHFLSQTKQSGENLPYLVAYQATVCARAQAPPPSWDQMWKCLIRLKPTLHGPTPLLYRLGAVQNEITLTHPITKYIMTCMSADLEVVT

Row | Ki [1] | IC90 [2] | SMILES
1 | 42000 nM | > 5000 nM | CC(C)COC(=O)N[C@@H](C1CCCCC1)[C@@H](O)CC(=O)N[C@@H](CC1CC1)C(=O)NC(CC1CC1)C(=O)C(=O)NCC(=O)N[C@H](C(=O)O)c1ccccc1 (stereo partly specified)
2 | 10000 nM | > 5000 nM | CC(C)COC(=O)N[C@@H](C1CCCCC1)[C@@H](O)CN(CC1CC1)C(=O)NC(CC1CC1)C(=O)C(=O)NCC(=O)N[C@H](C(=O)O)c1ccccc1 (stereo partly specified)
3 | 230 nM | > 5000 nM | CC(C)COC(=O)N[C@H](C(=O)NN(CC1CC1)C(=O)NC(CC1CC1)C(=O)C(=O)NCC(=O)N[C@H](C(=O)O)c1ccccc1)C1CCCCC1 (stereo partly specified)
4 | 2100 nM | > 5000 nM | CC(C)COC(=O)N[C@H](C(=O)CN(CC1CC1)C(=O)NC(CC1CC1)C(=O)C(=O)NCC(=O)N[C@H](C(=O)O)c1ccccc1)C1CCCCC1 (stereo partly specified)
5 | 50 nM | > 5000 nM | CC(C)COC(=O)N[C@H](C(=O)N[C@@H](CC1CC1)C(=O)NC(CC1CC1)C(=O)C(=O)NCC(=O)N[C@H](C(=O)N(C)C)c1ccccc1)C1CCCCC1 (stereo partly specified) (Isobutyloxycarbonyl-[Chg][Ala(cPr)][X1]G[Phg]-NMe2)
6 | 15 nM | > 5000 nM | CC(C)COC(=O)N[C@H](C(=O)N[C@@H](CC1CC1)C(=O)NC(CC1CC1)C(=O)C(=O)NCC(=O)N[C@H](C(=O)O)c1ccccc1)C1CCCCC1 (stereo partly specified) (Isobutyloxycarbonyl-[Chg][Ala(cPr)][X1]G[Phg]-OH)
7 | 60 nM | 950 nM | CC(C)COC(=O)N[C@H](C(=O)N(C)[C@@H](CC1CC1)C(=O)NC(CC1CC1)C(=O)C(=O)NCC(=O)N[C@H](C(=O)N(C)C)c1ccccc1)C1CCCCC1 (stereo partly specified) (Isobutyloxycarbonyl-[Chg][NMeAla(cPr)][X1]G[Phg]-NMe2)
8 | 120 nM | > 5000 nM | CC(C)COC(=O)N[C@H](C(=O)N(C)[C@@H](CC1CC1)C(=O)NC(CC1CC1)C(=O)C(=O)NCC(=O)N[C@H](C(=O)O)c1ccccc1)C1CCCCC1 (stereo partly specified) (Isobutyloxycarbonyl-[Chg][NMeAla(cPr)][X1]G[Phg]-OH)
